Data taken from patent US20170252327A1, “Methods of Modulating Gastrointestinal Tract Flora Levels with Alkaline Phosphatase” (priority 2008, published 2017).

Assays:
gut microbiota [1] = assay: Restoration of gut flora after ampicillin treatment with or without cIAP (stool culture in LB media); assay type: in vivo, mice (C57BL/6)
Procedure: An experiment was performed in which five mice (C57BL/6) of each test group, approximately 6 weeks old, were treated with 1 mg/ml of the antimicrobial drug ampicillin, in the presence or absence of calf intestinal alkaline phosphatase (cIAP) (New England Biolabs, Ipswich, Mass.). Ampicillin was administered orally with the animal's drinking water at a concentration of 1 mg/ml, and 250 units of cIAP were administered twice daily as oral gavage. Individual stool samples of each group were cultured in LB media each day and analyzed for the presence/absence of the gut flora. The gut flora of mice before receiving the antibiotic was considered as a baseline control for normal gastrointestinal tract flora (present in all samples). […] Both treatment groups received ampicillin for 10 days.

[2] = system: Gram-negative bacteria (mostly E. coli); assay: Restoration of commensal Gram-negative gut flora in streptomycin-treated WT mice with or without cIAP (MacConkey agar); assay type: in vivo; conditions: streptomycin 5 mg/ml in drinking water
Procedure: Accordingly, experiments were performed in which groups of WT mice (n=10) were treated orally with the antibiotic streptomycin in the presence or absence of cIAP. Streptomycin (5 mg/ml) and cIAP (200 U/ml for cIAP^+ Group, n=5) or ‘vehicle for cIAP’ (20 μl/ml ‘vehicle for cIAP’ (50 mM KCl, 10 mM Tris-HCl (pH 8.2), 1 mM MgCl, 0.1 mM ZnCl2, and 50% glycerol) in drinking water for control cIAP^− Group, n=5) were administered in the animals' drinking water and fecal cultures were performed.
Individual stool samples were cultured each day on MacConkey agar media. […] After discontinuation of antibiotic treatment, the time of appearance (Day) of Gram-negative bacteria (mostly E. coli, occasionally P. mirabilis) in stool samples was recorded for each animal. The experiment was repeated six times, which raised the total number of animals in each group to 39 (n=39), however, duration of each experiment varied (7-35 days). Data was compiled from all six experiments and the number of animals with E. coli in each group on a specific day was recorded.

gut microbiota [3] = assay: Restoration of gut flora after streptomycin treatment with or without cIAP (stool culture in LB media); assay type: in vivo, mice (C57BL/6)
Procedure: To address the role of intestinal alkaline phosphatase on the gastrointestinal tract flora of mammals, an experiment was performed in which five approximately six week old mice (C57BL/6) of each test group were treated with an antimicrobial drug, streptomycin, in the presence or absence of calf intestinal alkaline phosphatase (cIAP) (Sigma, St. Louis, Mo.). Both streptomycin (5 mg/ml) and cIAP (50 units/ml) were administered orally with the animal's drinking water. Individual stool samples of each group were cultured in LB media each day and analyzed for the presence/absence of gut flora. The gastrointestinal tract flora of mice before antibiotic treatment was considered as a baseline control for the normal gut flora (present in all samples).

IAP = assay: Stool IAP activity in PTU-treated mice given T3 (hyperthyroid); assay type: in vivo
Excerpt: In WT mice, IAP (Akp3 isoform) is expressed at postnatal Day 15 (Narisawa et al., Am J Physiol Gastrointest Liver Physiol, 293:G1068, 2007), while IAP-KO mice lack this enzyme for their entire life. However, a variety of pathophysiological conditions can lead to altered IAP expression in adult WT animals, which may affect their intestinal flora. Accordingly, stool samples of hypothyroid and hyperthyroid mice were examined, since IAP is known to be silenced in hypothyroid animals and dramatically over-expressed in hyperthyroid animals (Hodin et al., Surgery, 120:138, 1996; Malo et al., Mol Endocrinol, 18:1941, 2004). For 32 weeks, groups of mice (n=5) were given water containing 0.05% propylthiouracil (PTU) in order to induce hypothyroidism by inhibiting both thyroid hormone biosynthesis and peripheral T4 deiodination (Cooper et al., Biochem Pharmacol, 33:3391, 1984). After 6 weeks of PTU treatment, one group received a daily i.p. injection of T3 (30 μg per 100 gm body weight, hyperthyroid) and the other group received a daily i.p. injection of normal saline (0.9% NaCl, hypothyroid) for 26 weeks (Hodin et al., Surgery, 120:138, 1996).
IAP activity was determined following the protocol as described by Baykov et al. (Anal Biochem, 171:266, 1988). Briefly, individual stool samples were homogenized in water (10 mg/100 μl), centrifuged and supernatant was collected. Then 25 μl of the stool supernatant (or aqueous cIAP solution) were mixed with 175 μl phosphatase assay reagent containing 5 mM of p-nitrophenyl phosphate (pNPP) followed by determining optical density at 405 nm after a specific time period when the samples usually turned yellow due to release of p-nitrophenol. Protein concentrations of stool supernatants were measured using a kit from Bio-Rad Laboratories (Hercules, Calif.). The specific activity of the enzyme, expressed as pmole pNPP hydrolyzed per minute per μg of protein, and CFU per gm of stool +/− SEM were determined and the results are shown in FIG. 3. […]

Q: For `CC1(C)S[C@@H]2[C@H](NC(=O)[C@H](N)c3ccccc3)C(=O)N2[C@H]1C(=O)O` [Ampicillin alone, ampicillin], which “Bacteria in the stool” value (gut microbiota [1]; Day 1) is on record?
A: Present

Q: What about the “Bacteria in the stool” value (gut microbiota [1]; Day 2) of the same compound?
A: Absent

Q: What about the “Bacteria in the stool” value (gut microbiota [1]; Day 3) of the same compound?
A: Absent

Q: What about the “Bacteria in the stool” value (gut microbiota [1]; Day 4) of the same compound?
A: Absent

Q: And the “Bacteria in the stool” value (gut microbiota [1]; Day 5)?
A: Absent

Q: What about the “Bacteria in the stool” value (gut microbiota [1]; Day 6) of the same compound?
A: Absent

Q: What about the “Bacteria in the stool” value (gut microbiota [1]; Day 7) of the same compound?
A: Absent

Q: And the “Bacteria in the stool” value (gut microbiota [1]; Day 8)?
A: Absent

Q: And the “Bacteria in the stool” value (gut microbiota [1]; Day 9)?
A: Absent

Q: What about the “Bacteria in the stool” value (gut microbiota [1]; Day 10) of the same compound?
A: Absent

Q: What about the “Bacteria in the stool” value (gut microbiota [1]; Day 11) of the same compound?
A: Absent

Q: What about the “Bacteria in the stool” value (gut microbiota [1]; Day 12) of the same compound?
A: Absent

Q: And the “Bacteria in the stool” value (gut microbiota [1]; Day 13)?
A: Absent

Q: What about the “Bacteria in the stool” value (gut microbiota [1]; Day 14) of the same compound?
A: Absent

Q: And the “Bacteria in the stool” value (gut microbiota [1]; Day 15)?
A: Absent

Q: And the “Bacteria in the stool” value (gut microbiota [1]; Day 16)?
A: Absent

Q: What about the “Bacteria in the stool” value (gut microbiota [1]; Day 17) of the same compound?
A: Absent

Q: What about the “Bacteria in the stool” value (gut microbiota [1]; Day 18) of the same compound?
A: Absent

Q: And the “Bacteria in the stool” value (gut microbiota [1]; Day 19)?
A: Absent

Q: And the “Bacteria in the stool” value (gut microbiota [1]; Day 20)?
A: Absent

Q: And the “Bacteria in the stool” value (gut microbiota [1]; Day 21)?
A: Absent

Q: What about the “Bacteria in the stool” value (gut microbiota [1]; Day 22) of the same compound?
A: Absent

Q: And the “Bacteria in the stool” value (gut microbiota [1]; Day 23)?
A: Absent

Q: What about the “Bacteria in the stool” value (gut microbiota [1]; Day 24) of the same compound?
A: Present

Q: What about the “Day at which stools showed normal gut flora” value (gut microbiota [1]; ampicillin for 10 days) of the same compound?
A: 24 days

Q: And the “No bacterial growth in stools until” value (gut microbiota [1]; ampicillin for 10 days)?
A: 23 days

Q: With `[H]/N=C(/N)N[C@H]1[C@H](O)[C@@H](O)[C@H](O[C@@H]2O[C@@H](C)[C@](O)(C=O)[C@H]2O[C@@H]2O[C@@H](CO)[C@H](O)[C@@H](O)[C@@H]2NC)[C@@H](N/C(N)=N\[H])[C@@H]1O` [Streptomycin alone, streptomycin] as the compound, how does the “Time to elimination of aerobic Gram-negative organisms in all animals” value [2] read?
A: ≤ 24 h

Q: What about the “Bacterial growth in stools” value (gut microbiota [3]; 24 hours after discontinuation of streptomycin) of the same compound?
A: no bacterial growth

Q: And the “Bacteria in the stool” value (gut microbiota [3]; Day 1)?
A: Absent

Q: What about the “Bacteria in the stool” value (gut microbiota [3]; Day 2) of the same compound?
A: Absent

Q: What about the “Bacteria in the stool” value (gut microbiota [3]; Day 3) of the same compound?
A: Absent

Q: What about the “Bacteria in the stool” value (gut microbiota [3]; Day 4) of the same compound?
A: Absent

Q: What about the “Bacteria in the stool” value (gut microbiota [3]; Day 5) of the same compound?
A: Absent

Q: And the “Bacteria in the stool” value (gut microbiota [3]; Day 6)?
A: Absent

Q: What about the “Bacteria in the stool” value (gut microbiota [3]; Day 7) of the same compound?
A: Absent

Q: What about the “Bacteria in the stool” value (gut microbiota [3]; Day 8) of the same compound?
A: Absent

Q: And the “Bacteria in the stool” value (gut microbiota [3]; Day 9)?
A: Absent

Q: What about the “Bacteria in the stool” value (gut microbiota [3]; Day 10) of the same compound?
A: Present

Q: And the “Time stools remained sterile” value (gut microbiota [3]; after streptomycin for 24 hours)?
A: up to nine

Q: What about the “Day at which stools showed signs of the normal gastrointestinal tract flora” value (gut microbiota [3]; streptomycin for 24 hours) of the same compound?
A: 10 days

Q: How did the “Stool IAP activity, higher compared to euthyroid animals” value (IAP; Week 32, hyperthyroid animals) turn out when `N[C@@H](Cc1cc(I)c(Oc2ccc(O)c(I)c2)c(I)c1)C(=O)O` [T3] was run?
A: approximately 7 fold

Q: What about the “Stool IAP activity, higher compared to hypothyroid animals” value (IAP; Week 32, hyperthyroid animals) of the same compound?
A: ~15 fold

Q: What about the “IAP activity in stools” value (IAP; Weeks 12-32, daily i.p. T3) of the same compound?
A: increased IAP activity
